Data published in US20250268859A1, “OXAFURAMINE, (1R)-N-ETHYL-1-[(2R)-OXOLAN-2-YL]-2-[…], HYDROCHLORIDE AND DERIVATIVES THEREOF FOR TREATING ALZHEIMER'S DISEASE (AD), […] […], […] WITH LEWY BODIES (DLB), MIXED […], FRON[…] DEGENERATION (FTLD), AND PARKINSON'S DISEASE (PD)” (NLS Pharmaceutics AG, priority 2021, published 2025).

Tested on: memory (recognition of the familiar object) in mice
Assay: Novel Object Recognition (NOR) test in mice
Format: in vivo, C57BL/6J, male
Settings: choice trial, mean, N = 16
Protocol: The test was carried out in circular boxes (30 cm diameter, 40 cm high). The objects to be discriminated (L≈1≈h≈3-4 cm) differed in both color and shape and were referred as yellow duck and blue lego. They were fixed with a magnet to the floor of the boxes at 5 cm of the wall, 20 cm distant. Apparently, they have no natural significance for mice and they have never been associated with a reinforcement. In order to rule out the possibility of scent traces left on the objects and therefore the dependency of the recognition capacity of mice on the olfactory cue, the objects and the ground of the box were washed with an odorless disinfectant (Sanicid® diluted in water) and dried between each trial. A camcorder was fixed to the ceiling above the box to record the animals' activity. The experiment was analyzed blindly at a later time.
On the week before the test, animals were handled by the experimenter in charge of the experiment in order to be not stressed at the time of testing. For this purpose, the experimenter placed a small amount of litter, and then the mouse on its hand.
The NOR test was completed over five days (see FIG. 1): • Day 1: Habituation trial. Animals were individually placed for a 15-min free exploration session in empty open boxes. • Day 2. Treatment administration and sample trial. […] They were individually placed 30 min after in the apparatus for a 6-min session with two identical objects (Duck, 50% of animals or Lego, 50% of animals). • Day 3. Choice trial. The mice were individually placed for a 6-min session in the apparatus with two objects (Duck and Lego), one of the objects presented in sample trials (termed as familiar objects) and a novel object (Lego, 50% of animals or Duck, 50% of animals).
The sample and choice trials were recorded with the camera located above the apparatus. The time spent by mice in exploring the objects was measured during the sample trial and the choice trial. Exploration of an object was defined as follows: directing the nose to the object at a distance≤2 cm and/or touching it with the nose or forelimbs; turning around or biting the object, or sitting on the object were not considered as exploratory behavior.
• L=exploration time of the left object in the sample trial. • R=exploration time of the right object in the sample trial. • N=exploration time of the new object in the choice trial. • F=exploration time of the familiar object in the choice trial.
• Exploration indices: • ST=L+R=exploration time (left object+right object) in the sample trial. • CT=N+F=exploration time (new object+familiar object) in the choice trial. • Two memory indices: • N-F=difference of exploration time between the new object and the familiar object in the choice trial.
Statistical analyses: • Read-outs: DI, N-F, ST, CT, N, F • Unpaired Student's t test: Donep 2 group vs. Control group. • One-way ANOVA, Dunnett test: • NLS-12 groups vs. Control group. • NLS-12 groups vs. Donep 2 group. • Read-outs: DI and N-F, for all groups, paired Student's t test, difference vs. 0. • Body weight: one-way ANOVA.

Q: For `CCN[C@H](Cc1ccccc1)[C@H]1CCCO1` [Oxafuramine, (1R)—N-ethyl-1-[(2R)-oxolan-2-yl]-2-phenylethanamine], which “F Exploration time of familiar object” value (NLS-12 1 mg/kg i.p.) is on record?
A: The value was 12.0 s.

Q: And the “N Exploration time of novel object” value (NLS-12 1 mg/kg i.p.)?
A: Its value is 12.6 s.

Q: And the “F Exploration time of familiar object” value (NLS-12 4 mg/kg i.p.)?
A: Its value is 11.0 s.

Q: And the “N Exploration time of novel object” value (NLS-12 4 mg/kg i.p.)?
A: The value was 14.7 s.

Q: And the “F Exploration time of familiar object” value (NLS-12 8 mg/kg i.p.)?
A: Its value is 9.9 s.

Q: What about the “N Exploration time of novel object” value (NLS-12 8 mg/kg i.p.) of the same compound?
A: The value was 15.9 s.
